Where two headings read alike, the source gives them in different places.
Tests used:
[1] = system: acetylcholine-induced abdominal constriction; assay: animal or person; type: in vivo, mice
bradykinin = assay: anti-bradykinin test (BRDK); type: in vivo; details: for inhibition in vivo at 50 mg/kg: 50 mg./kg. oral; for inhibition in vivo at 200 mg/kg: 200 mg./kg. oral
Text: The test procedures used to determine the analgesic activities of the compounds have been described in detail in the prior art and are as follows: The acetylcholine-induced abdominal constriction test, which is a primary analgesic screening test designed to measure the ability of a test agent to suppress acetylcholine-induced abdominal constriction in mice, described by Collier et al., Brit. J. Pharmacol. Chemotherap. 32, 295 (1968); a modification of the anti-bradykinin test, which is also a primary analgesic screening procedure, described by Berkowitz et al., J. Pharmacol. Exptl. Therap. 177, 500-508 (1971), Blane et al., J. Pharm. Pharmacol. 19, 367-373 (1967), Botha et al., Eur. J. Pharmacol. 6, 312-321 (1969) and Deffenu et al., J. Pharm. Pharmacol. 18, 135 (1966); and the rat paw flexion test, described by Kuzuna et al., Chem. Pharm. Bull., 23, 1184-1191 (1975), Winter et al., J. Pharm. Exptl. Therap., 211, 678-685 (1979) and Capetola et al., J. Pharm. Exptl. Therap. 214, 16-23 (1980).
Unless noted otherwise, all data were obtained on oral administration and are expressed either as the ED50 or as the percent inhibition at a given dose level (thus 30/100 or 30% inhibition at […].)
In some instances, the compounds were retested two or more times, and ED50 values were calculated for each series of repeat tests. In such instances, each of the ED50 values so-obtained is given in a series of values, thus 6, 28, 30, 43 in the case of the species of Example 1AW in the acetylcholine-induced abdominal constriction test.

[2] = Mus musculus, po, read-out: Ach ED50
[3] = read-out: BRDK percent inhibition
[4] = Mus musculus, iv, read-out: Ach ED50
[5] = Mus musculus, po, 100 mg./kg. oral, read-out: Ach percent inhibition
[6] = Mus musculus, po, 100 mg./kg. oral, Table D, formula II intermediates (Preparations), read-out: Ach percent inhibition

Question: Which ED50 [1, 2] does the source give for `COc1ccc(C(=O)c2cn(CCN3CCOCC3)c3ccccc23)cc1.CS(=O)(=O)O.O` [Example 1A, 3-(4-methoxybenzoyl)-1-[2-(4-morpholinyl)ethyl]-1H-indole methanesulfonate monohydrate] here?
Answer: 73 mg/kg

Question: And the ED50 (bradykinin; po)?
Answer: 56 mg/kg

Question: `O=C(c1ccccc1)c1cn(CCN2CCOCC2)c2ccccc12` [Example 1AP] was tested. Which ED50 [1, 2] did it give?
Answer: 42 mg/kg

Question: What about the inhibition in vivo at 50 mg/kg (bradykinin; [3]) of the same compound?
Answer: 0%

Question: And the inhibition in vivo at 200 mg/kg (bradykinin; [3])?
Answer: 33%

Question: And the inhibition in vivo at 400 mg/kg (bradykinin; 400 mg./kg. oral, read-out: BRDK percent inhibition)?
Answer: 60%

Question: With `Cc1c(C(=O)c2cccs2)c2ccccc2n1CCN1CCOCC1` [Example 1AT] as the compound, how does the ED50 [1, 2] read?
Answer: 30 mg/kg

Question: And the inhibition in vivo at 50 mg/kg (bradykinin; [3])?
Answer: 0%

Question: What about the inhibition in vivo at 200 mg/kg (bradykinin; [3]) of the same compound?
Answer: 0%

Question: For `COc1ccc2c(C(=O)c3ccc(Cl)cc3)c(C)n(CCN3CCOCC3)c2c1` [Example 1AU], which ED50 [1, 2] is on record?
Answer: 42 mg/kg

Question: What about the inhibition in vivo at 50 mg/kg (bradykinin; [3]) of the same compound?
Answer: 0%

Question: What does the source list for `COc1ccc2c(C(=O)c3cccs3)c(C)n(CCN3CCOCC3)c2c1` [Example 1AV]?
Answer: ED50 [1, 2]: 38 mg/kg; inhibition in vivo at 50 mg/kg (bradykinin; [3]): 0%

Question: Which results are given for `Cc1c(C(=O)c2ccccc2)c2ccccc2n1CC(C)N1CCOCC1` (stereo not drawn) [Example 1AX]?
Answer: ED50 [1, 2]: 45 mg/kg; inhibition in vivo at 212 mg/kg (bradykinin; 212 mg./kg. oral, read-out: BRDK percent inhibition): 0%

Question: With `COc1ccc(C(=O)c2c(C)n(CCN3CCOCC3)c3ccccc23)cc1` [Example 1B, 2-methyl-3-(4-methoxybenzoyl)-1-[2-(4-morpholinyl)ethyl]-1H-indole] as the compound, how does the ED50 [1, 4] read?
Answer: 6.7 mg/kg

Question: What about the ED50 (bradykinin; iv) of the same compound?
Answer: 8.1 mg/kg

Question: Which results are given for `COc1ccc(C(=O)c2c(C)n(CCN3CCOCC3)c3ccccc23)c2ccccc12` [Example 1BI]?
Answer: ED50 [1, 4]: 0.69 mg/kg; inhibition in vivo at 300 mg/kg ([1]; Mus musculus, po, 300 mg./kg. oral, read-out: Ach percent inhibition): 13%; inhibition in vivo at 100 mg/kg ([1]; Mus musculus, sc, 100 mg./kg. s.c., read-out: Ach percent inhibition): 27%; inhibition in vivo at 6 mg/kg (bradykinin; 6 mg./kg. oral, read-out: BRDK percent inhibition): 0%

Question: Which ED50 [1, 2] does the source give for `COc1ccc(C(=O)c2c(C)n(CC(O)CN3CCOCC3)c3ccccc23)cc1` (stereo not drawn) [Example 31G] here?
Answer: 133 mg/kg

Question: With `COc1ccc(C(=O)c2c(C)n(CC(O)CN3CCCC3)c3ccccc23)cc1` (stereo not drawn) [Example 31H] as the compound, how does the inhibition in vivo at 10 mg/kg ([1]; Mus musculus, iv, 10 mg./kg. i.v., read-out: Ach percent inhibition) read?
Answer: 80%

Question: And the ED50 [1, 2]?
Answer: 56 mg/kg

Question: How did the inhibition in vivo at 100 mg/kg [1, 5] turn out when `COc1ccc(C(=O)c2c(C)n(CC(O)CN=[N+]=[N-])c3ccccc23)cc1` (stereo not drawn) [Example 31J, 1-(3-azido-2-hydroxy-1-propyl)-2-methyl-3-(4-methoxybenzoyl)-1H-indole] was run?
Answer: 10%

Question: `COc1ccc(C(=O)c2c(C)n(CC(O)CN3CCC3)c3ccccc23)cc1` (stereo not drawn) [Example 31K] was tested. Which ED50 [1, 2] did it give?
Answer: 28 mg/kg

Question: For `COc1ccc(C(=O)c2c(C)n(CC(O)CN(C)C)c3ccccc23)cc1` (stereo not drawn) [Example 31L], which ED50 [1, 2] is on record?
Answer: 32 mg/kg

Question: For `COc1ccc(C(=O)c2c(C)n(CC(O)CNC(C)C)c3ccccc23)cc1` (stereo not drawn) [Example 31M], which ED50 [1, 2] is on record?
Answer: 26 mg/kg

Question: How did the inhibition in vivo at 100 mg/kg [1, 5] turn out when `CCNCC(O)Cn1c(C)c(C(=O)c2ccc(OC)cc2)c2ccccc21` (stereo not drawn) [Example 31N] was run?
Answer: 90%

Question: For `COc1ccc(C(=O)c2c(C)n(CC(O)CN)c3ccccc23)cc1` (stereo not drawn) [Example 32, 1-(3-amino-2-hydroxy-1-propyl)-2-methyl-3-(4-methoxybenzoyl)-1H-indole], which ED50 [1, 2] is on record?
Answer: 85 mg/kg

Question: `Cc1[nH]c2ccccc2c1C(=O)c1ccccc1-c1ccccc1` [Preparation 1AK] was tested. Which inhibition in vivo at 100 mg/kg [1, 6] did it give?
Answer: 20%

Question: With `Cc1[nH]c2ccccc2c1C(=O)c1ccc(-c2ccccc2)cc1` [Preparation 1AL] as the compound, how does the inhibition in vivo at 100 mg/kg [1, 6] read?
Answer: 20%

Question: `COc1cc(OC)cc(C(=O)c2c(C)[nH]c3ccccc23)c1` [Preparation 1AO] was tested. Which inhibition in vivo at 100 mg/kg [1, 6] did it give?
Answer: 40%

Question: For `COc1ccc(C(=O)c2c(C)[nH]c3ccc(F)cc23)cc1` [Preparation 1F, 2-methyl-5-fluoro-3-(4-methoxybenzoyl)indole], which inhibition in vivo at 100 mg/kg [1, 6] is on record?
Answer: 0%

Question: With `CS(=O)(=O)O.Cc1cc2ccccc2n1C(C)CN1CCOCC1.O` (stereo not drawn) [Preparation 5A, 2-methyl-1-[1-methyl-2-(4-morpholinyl)ethyl]-1H-indole methanesulfonate hydrate] as the compound, how does the “inhibition in acetylcholine-induced abdominal constriction test” value ([1]; 300 mg./kg. (p.o.), Preparations) read?
Answer: 40%

Question: For `Cc1cc2cc(F)ccc2n1C(C)CN(C)C` (stereo not drawn) [Preparation 8, 5-fluoro-2-methyl-1-(1-methyl-2-dimethylaminoethyl)-1H-indole], which ED50 ([1]; Mus musculus, po, Preparations, read-out: ED50 in acetylcholine-induced abdominal constriction test) is on record?
Answer: 25 mg/kg

From patent US4581354A, “3-arylcarbonyl- and 3-cycloalkylcarbonyl-1-aminoalkyl-1H-indoles, compositions and use” (Sterling Drug Inc., priority 1985, dated 1986)
